Article PMC12026006, “Phosphodiesterase Inhibition and Immunotropic Activity of Dipyridamole Dynamic Derivatives” (Current Issues in Molecular Biology, 2025)
Read-outs that look alike come from different tables or passages of the source.

Target: T1, cAMP-phosphodiesterase (PDE)
T1 construct: gene PDE1A; enzyme of commercial Abcam colorimetric PDE kit
Assay: colorimetric PDE activity kit ab139460, plate reader […] nm
Assay type: biochemical
Settings: two-range dilution, measuring error 10%, isoenzyme not told, read-out: IC50 **^1

| IC50 (control from kit) [µM] | IC50 [µM] | SMILES |
| --- | --- | --- |
| 5 | – | CC(C)Cn1c(=O)n(C)c(=O)c2[nH]cnc21 [compound 11, 3-isobutyl-1-methylxanthine] |
| – | 5 | OCCN(CCO)c1nc(N2CCCCC2)c2nc(N(CCO)CCO)nc(N3CCCCC3)c2n1 [10 (D10), 2,6-bis-diethanolamino-4,8-dipiperidinopyrimido(5,4-d)-pyrimidine] |
